Source: US10758524B2, “Compositions and methods for selectively depleting senescent cells” (BioVentures, LLC, priority 2014, dated 2020)

What was measured:
Type in all cases: cell-based
Normal WI38 cells = test: Cell viability of normal WI38 cells at 72 h (LD50); conditions: for CC50: Homo sapiens, WI-38, 72 h, read-out: LD50 non-senescent cells (NSC); for LD50 (normal): normal WI38 cells, Table 1
Procedure: (§1) Normal WI38 cells (FIG. 1A), IR-induced senescent cells (FIG. 1B) and replicative senescent cells (FIG. 1C) were incubated with increasing concentrations of PL. At 72 hours post-treatment cell viability was measured. […] IR-induced senescent WI38 cells were treated with 10 μM PL and viable cells were measured at 0, 1, 2, 3, 6, 12, 16, 24, 48 and 72 hours after treatment (FIG. 1D) or the cells were incubated with 10 μM PL for 1, 3, 6, 12, 24, 48 or 72 hours and cell viability was measured at 72 h (FIG. 1E).
(§2) At 72 hours post-treatment cell viability was measured.
(§3) Normal WI38 cells and IR-induced senescent cells were incubated with increasing concentrations of compounds of Formula I and Formula II. At 72 hours post-treatment cell viability was measured and LD50 was calculated.

[1] = test system: IR-induced senescent WI38 cells; test: Cell viability of IR-induced senescent WI38 cells at 72 h (LD50); conditions: for IC50: Homo sapiens, WI-38, 72 h, read-out: LD50 IR-senescent cells (SC); for Ratio (NSC/SC) / Ratio (normal/senescent): ratio of LD50 values; for Ratio (NSC/SC): Table 2; for LD50 (IR-senescent): IR-induced senescent WI38 cells; for LD50 (IR-senescent) / Ratio (normal/senescent): Table 1
Procedure: as §1, §2, §3

[2] = test system: replicative senescent WI38 cells; test: Cell viability of replicative senescent WI38 cells at 72 h (LD50)
Procedure: as §1

[3] = test system: IR-induced senescent WI38 cells; test: Reactive oxygen species (ROS) measurement after PL treatment; conditions: 10 μM PL, at 24 hours
Procedure: PL selectively increases ROS in senescent WI38 in a time-dependent manner. Normal (FIG. 2A) and IR-induced senescent WI38 cells (FIG. 2B) were incubated with vehicle (Veh), […] H2O2 for 30 min as a positive control, or 10 μM PL. Reactive oxygen species (ROS) was measured at various times (1, 3, 6, 12, 24 hours) after PL treatment and expressed as percent of control. Data are presented as mean±SE of three independent assays.

Row | Compound | CC50 (Normal WI38 cells) [µM] | IC50 [1] [µM] | Ratio (NSC/SC) [1] | other results
1 | O=C(C#Cc1ccccc1)N1CCC=CC1=O [XZ 12040] | 5.78 | 2.4 | 2.41 | 
2 | COc1cc(/C=C/C(=O)N2CCC=CC2=O)cc(OC)c1OC [PL, 5,6-dihydro-1-[(2E)-1-oxo-3-(3,4,5-trimethoxyphenyl)-2-propenyl]-2(1H)-pyridinone, reference compound] |  |  |  | effect on cell viability (Normal WI38 cells; PL up to 10 μM, 72 hours): no significant effect; LD50 (normal) (Normal WI38 cells): 24.25 µM; viable cells over time ([1]; 10 μM PL, from 6 hours on, both treatment scenarios): significant reduction in viable cells; LD50 (IR-senescent) [1]: 7.05 µM; effect on number of viable cells ([1]; PL as low as 5 μM, 72 hours): significantly reduced the number of viable cells; Ratio (normal/senescent) [1]: 3.44-3.82; effect on number of viable cells ([2]; PL as low as 5 μM, 72 hours): significantly reduced the number of viable cells; LD50 (Replicative) ([2]; replicative senescent WI38 cells, Table 1): 6.35 µM; ROS production [3]: significantly increased ROS production
3 | CC(=O)N[C@@H](CS)C(=O)O [NAC, N-Acetyl-Cysteine, reference compound] |  |  |  | effect on PL induced cell death ([1]; pre-treatment 2 hours (NAC 1 mM; Q-VD-OPh 20 μM), then 10 μM PL 72 h): selectively inhibited PL induced cell death
4 | CCCOc1c(OC)cc(/C=C/C(=O)N2CCC=CC2=O)cc1OC [GZ-11719-by] | 84.7 | 47.1 | 1.80 | 
5 | COc1cc(/C=C/C(=O)N2CCCCCC2=O)cc(OC)c1OC [XL-11178A] | > 40 | > 40 |  | 
6 | C=C1CCCN(S(=O)(=O)/C=C/c2ccccc2)C1=O [XZ-12107] | 24 | 4.77 | 5.02 | 
7 | CCCCCCCCCC[P+](c1ccccc1)(c1ccccc1)c1ccccc1 [Decyl-triphenylphosphonium, reference compound] |  |  |  | LD50 (normal) (Normal WI38 cells): 1.41 µM; LD50 (IR-senescent) [1]: 0.98 µM; Ratio (normal/senescent) [1]: 1.4
8 | COc1cc(/C=C/C(=O)N2CCC=CC2=O)cc(OC)c1OCCN(C)C [XL-11194] | 10.3 | 4.02 | 2.56 | 
9 | COc1cc(C#CC(=O)N2CCC=CC2=O)cc(OC)c1OC [XZ-12045] | 13.9 | 4.38 | 3.18 | 
10 | COc1cc(/C=C/C(=O)N2CCC=CC2=O)cc(OC)c1OCCN(C)CCOc1c(OC)cc(/C=C/C(=O)N2CCC=CC2=O)cc1OC [GZ-11719] | 1.62 | 0.9 | 1.80 | 
11 | CCCCS(=N)(=O)CCC(N)C(=O)O (stereo not drawn) [Buthionine sulfoximine, reference compound] |  |  |  | LD50 (normal) (Normal WI38 cells): 2340.19 µM; LD50 (IR-senescent) [1]: 2391.51 µM; Ratio (normal/senescent) [1]: 1.0
12 | COc1cc(/C=C(\Br)C(=O)N2CCC=CC2=O)c(Br)c(OC)c1OC [GZ-11734] | 7.16 | 1.39 | 5.14 | 
13 | CC(=O)OC[C@H]1O[C@@H]([S-])[C@H](OC(C)=O)[C@@H](OC(C)=O)[C@@H]1OC(C)=O.CCP(CC)CC.[Au+] [Auranofin, reference compound] |  |  |  | LD50 (normal) (Normal WI38 cells): 5.13 µM; LD50 (IR-senescent) [1]: 5.34 µM; Ratio (normal/senescent) [1]: 1.0
14 | O=C1C=CCCN1C(=O)/C=C/c1ccccc1C(F)(F)F [XZ-12047] | 21.9 | 10.8 | 2.03 | 
15 | COc1cc(/C=C(\C#N)C(=O)N2CCC=CC2=O)cc(OC)c1OC [XZ-12052] | 80 | 41 | 1.95 | 
